According to publication PMC7763603, “Structural Basis for Design of New Purine-Based Inhibitors Targeting the Hydrophobic Binding Pocket of Hsp90” (International Journal of Molecular Sciences, 2020):
Like-named read-outs stand apart in the source and are kept apart here.

Legend:
[1] = molecular target: T1, human recombinant N-terminal Hsp90α (Homo sapiens, UniProt P07900); experiment: Fluorescence polarization competition assay with FITC-GM probe (Reaction Biology Corporation); assay type: binding; conditions: for inhibition at 10 µM: read-out: Hsp90α % Inhibition @10 μM; for IC50: 10-dose, threefold serial dilution starting at 100 μM, mean of two experiments
T1 construct: human recombinant N-terminal Hsp90α protein; purchased Reaction Biology Corporation (RBC, Malvern, PA, USA; assay service)

MCF-7 cells = experiment: MTT antiproliferative assay, MCF-7; assay type: cell-based, human; conditions: for inhibition at 10 µM / GI50: Homo sapiens, MCF7, 72 h; for inhibition at 10 µM: read-out: MCF-7 % Inh. at 10 μM; for GI50: mean ± SEM of two experiments
Description: The growth inhibitory effects of the test compounds, at 10 µM dose, were determined after 72 h incubation using the 3-(4,5-dimethylthiazol-2-yl)-2,5-diphenyl tetrazolium bromide (MTT) assay. […] Such modest cellular outcomes of those purine derivatives may be attributed to their lower lipophilic characters, which in turn restrict their cellular permeability into cancer cells. […] The 2-phenyloxazole-substituted purine 8 exerted reasonable antiproliferative activity, with GI values of 33.27% and 37.46% against MCF-7 and SK-BR-3 cells, respectively.
(§1) Cytotoxic activity of certain Hsp90 inhibitors against human cancer cell lines (MCF-7, SK-BR-3, and HCT116) was investigated using the MTT assay following the reported procedure. Cells were seeded into 96-well plates at a density of 3000 cells per well (MCF-7, HCT116, SK-BR-3 cells per each well). The compounds were added into cells and incubated for 72 h. Then, absorbance at 450 nm was measured using a Microplate Absorbance Reader (Bio-Rad, Hercules, CA, USA).

SK-BR-3 cells = experiment: MTT antiproliferative assay, SK-BR-3; assay type: cell-based, human; conditions: for GI50: mean ± SEM of two experiments; for inhibition at 10 µM: read-out: SK-BR-3 % Inh. at 10 μM
Description: […] […] Such modest cellular outcomes of those purine derivatives may be attributed to their lower lipophilic characters, which in turn restrict their cellular permeability into cancer cells. […] The 2-phenyloxazole-substituted purine 8 exerted reasonable antiproliferative activity, with GI values of 33.27% and 37.46% against MCF-7 and SK-BR-3 cells, respectively.
as §1

HCT116 cells = experiment: MTT antiproliferative assay, HCT116; assay type: cell-based, human; conditions: for GI50: mean ± SEM of two experiments; for inhibition at 10 µM: read-out: HCT116 % Inh. at 10 μM
Description: The growth inhibitory effects of the test compounds, at 10 µM dose, were determined after 72 h incubation using the 3-(4,5-dimethylthiazol-2-yl)-2,5-diphenyl tetrazolium bromide (MTT) assay.
as §1

[2] = molecular target: T2, mHsp90ND (N-terminal domain of mouse Hsp90α) (Mus musculus, UniProt P07901); experiment: Isothermal titration calorimetry (ITC); assay type: binding
T2 construct: Hsp90α (residues 9–225 Swiss Prot entry: P07901); His6 (N); made in house; host or cells: Escherichia coli BL21 (DE3) codon plus RIL
Description: The PCR product was cloned into plasmid pET28a, which encodes a purification tag consisting of the amino acids His6 at the N-terminal of the protein. mHsp90ND was expressed in Escherichia coli (E. coli) BL21 (DE3) codon plus RIL (Stratagene) cell. The cells were lysed by sonication in 50 mM Tris-HCl (pH 7.4), 100 mM NaCl, 2 mM 2-mercaptoethanol, and 0.2 mM phenylmethylsulfonyl fluoride (PMSF). After centrifugation, mHsp90ND in the supernatant was purified by Ni^2+-chelated Hi-trap chelating column, and HiLoad 26/60 200pg column (GE healthcare, Chicago, IL, USA). After the final step, mHsp90ND was stored in 20 mM Tris-HCl (pH 7.4), 100 mM NaCl, and 1 mM dithiothreitol (DTT).
Stock solutions of those compounds were prepared in dimethyl sulfoxide (DMSO) at 100 mM concentration and stored at −20 °C. The ITC buffer contained 20 mM Tris (pH 8.0), 100 mM NaCl, and up to 2% DMSO. […] The experimental raw data were corrected for dilution by subtracting the values for buffer alone and then fit by a one-site binding model. Titration data were fit using a nonlinear least squares curve-fitting algorithm with three floating variables: stoichiometry, binding constant (KD), and change of enthalpy of interaction.

Hsp90α = Hsp90α (Homo sapiens, UniProt P07900); experiment: Colorimetric determination of ATPase activity of Hsp90; assay type: biochemical; conditions: 50 µM compound, 30 min, compared to positive control with Hsp90α, duplicate
Description: The reaction was terminated by adding 200 μL reagent buffer. Followed by incubation with reagent buffer for 30 min at the room temperature, the absorbance was measured at 620 nm using a Biotek-Synergy Neo-Plate Reader (BioTek Instruments, Winooski, VT, USA).

[3] = test system: HSP90 client proteins (EGFR, Akt), Hsp70 in MCF7 cells; experiment: Western blot of HSP90 client proteins and Hsp70 in MCF7 cells; assay type: cell-based, human; conditions: 24 h
Description: Furthermore, the effect of compound 14 on cellular biomarkers of the HSP90 inhibition was evaluated to obtain insights about the molecular mechanisms triggering its anticancer activity. MCF7 cells were incubated with various doses of compound 14 (0.5, 1, 5, 10, and 20 μM) for 24 h, and the expression levels of HSP90 client proteins (EGFR, Akt, and Cdk4), Hsp90, HSP70, and glyceraldehyde-3-phosphate dehydrogenase (GAPDH) were determined by Western blot analysis (Figure 6).
MCF7 cells were seeded in 60 mm culture dishes, incubated overnight, and treated with the indicated concentrations of compound 14 or geldanamycin for 24 h. Cells were then harvested and lysed on ice by radioimmunoprecipitation assay (RIPA) buffer (23 mM Tris-HCl (pH 7.6), 130 mM NaCl, 1% nonidet P-40 (NP-40), 1% sodium deoxycholate, 0.1% SDS) supplemented with protease and phosphatase inhibitor cocktails, and […] of lysate perlane was separated by SDS-PAGE, followed by transferring to a polyvinylidene fluoride (PVDF) membrane (Bio-Rad, Hercules, CA, USA). The membrane was blocked with 5% skim milk in TBS-T, and then incubated with the corresponding primary antibody (EGFR, Akt, Hsp90, Hsp70, or GAPDH). After binding of an appropriate secondary antibody (Santa Cruz, CA, USA) coupled to horseradish peroxidase, proteins were visualized by enhanced chemiluminescence (ECL) according to the instructions of the manufacturer (GE healthcare, Chicago, IL, USA).

[4] = design: method as in PMID 22938030; conditions: in mice; cited from earlier work
[5] = single dose 10 μM, duplicate, FITC-GM probe
[6] = Homo sapiens, SK-BR-3, 72 h, 10 μM
[7] = Homo sapiens, HCT-116, 72 h, 10 μM
[8] = ITC, 25 °C, one-site binding model
[9] = ITC, 25 °C, one-site binding model, read-out: KD

## 6-Chloro-9-((2-phenyloxazol-5-yl)methyl)-7H-purin-2-amine [Compound 8]
[1]; [5]
  Hsp90α % Inhibition @10 μM: 48.7%
MCF-7 cells; 10 μM, 72 h
  MCF-7 % Inh. at 10 μM: 33.27%
SK-BR-3 cells; 10 μM, 72 h
  SK-BR-3 % Inh. at 10 μM: 37.46%
SK-BR-3 cells; 72 h
  GI50: 22500 ± 700 nM
HCT116 cells; 10 μM, 72 h
  HCT116 % Inh. at 10 μM: 19.19%
HCT116 cells; 72 h
  GI50: 23400 ± 2940 nM

## COc1c(C)cnc(Cn2cnc3c(Cl)nc(N)nc32)c1C [BIIB021, reference compound]
MCF-7 cells; 10 μM
  inhibition at 10 µM: 84.8%
MCF-7 cells
  GI50: 392 ± 30 nM
SK-BR-3 cells; [6]
  inhibition at 10 µM: 71.9%
SK-BR-3 cells; Homo sapiens, SK-BR-3, 72 h
  GI50: 347 ± 23 nM
HCT116 cells; [7]
  inhibition at 10 µM: 86.2%

## CC(C)(C)C1=NOC(Cn2cnc3c(Cl)nc(N)nc32)C1 (centres unmarked) [Compound 4b, 9-((3-(tert-Butyl)-4,5-dihydroisoxazol-5-yl)methyl)-6-chloro-9H-purin-2-amine]
[1]; [5]
  inhibition at 10 µM: 35.4%
HCT116 cells; [7]
  inhibition at 10 µM: < 30%
[2]; ITC, 25 °C
  ∆H: -19.8 ± 3.29 kcal/mol
  ∆S: −44.5 cal/mol/deg
[2]; [8]
  N (binding stoichiometry): 1.17
[2]; [9]
  Kd: 15600 nM
other
  melting point: 198.3 to 200.8 °C

## CC(C)(C)c1cc(Cn2cnc3c(Cl)nc(N)nc32)on1 [Compound 6b, 9-((3-(tert-Butyl)isoxazol-5-yl)methyl)-6-chloro-9H-purin-2-amine]
[1]; 10 μM, FITC-GM probe
  potency relative to isoxazoline congener 4b (from % inhibition): 2.7 fold
[1]; FITC-GM probe
  IC50: 1760 nM
[1]; [5]
  inhibition at 10 µM: 95.8%
MCF-7 cells; 10 μM
  inhibition at 10 µM: 15.7%
SK-BR-3 cells; [6]
  inhibition at 10 µM: 45.8%
SK-BR-3 cells; Homo sapiens, SK-BR-3, 72 h
  GI50: 26000 ± 1360 nM
HCT116 cells; [7]
  inhibition at 10 µM: 26%
[2]; ITC, 25 °C
  ∆H: -14.5 ± 0.4 kcal/mol
  ∆S: −19.4 cal/mol/deg
[2]; [8]
  N (binding stoichiometry): 0.97
[2]; [9]
  Kd: 440 nM

## CC(C)c1cc(Cn2cnc3c(Cl)nc(N)nc32)on1 [Compound 6c, 6-Chloro-9-((3-isopropylisoxazol-5-yl)methyl)-9H-purin-2-amine]
[1]; FITC-GM probe
  IC50: 203 nM
[1]; [5]
  inhibition at 10 µM: 77.3%
MCF-7 cells; 10 μM
  inhibition at 10 µM: 11.9%
SK-BR-3 cells; [6]
  inhibition at 10 µM: 33.2%
HCT116 cells; [7]
  inhibition at 10 µM: -0.6%
[2]; ITC, 25 °C
  ∆H: -15.8 ± 0.5 kcal/mol
  ∆S: −24.8 cal/mol/deg
[2]; [8]
  N (binding stoichiometry): 1.00
[2]; [9]
  Kd: 680 nM

## CCOC(=O)c1cc(Cn2cnc3c(Cl)nc(N)nc32)no1 [Compound 7, Ethyl 3-((2-amino-6-chloro-9H-purin-9-yl)methyl)isoxazole-5-carboxylate]
[1]; [5]
  inhibition at 10 µM: 14.8%

## Nc1nc(Cl)c2c(ncn2Cc2cnc(-c3ccccc3)o2)n1 [Compound 9, 6-Chloro-7-((2-phenyloxazol-5-yl)methyl)-7H-purin-2-amine]
[1]; [5]
  Hsp90α % Inhibition @10 μM: fluorescence background that interfered with the assay

## Cc1ccc(C#CCn2cnc3c(Cl)nc(N)nc32)cc1 [Compound 10, 6-Chloro-9-(3-(p-tolyl)prop-2-yn-1-yl)-9H-purin-2-amine]
[1]; [5]
  inhibition at 10 µM: 22.2%

## Cc1ccc(C#CCn2cnc3nc(N)nc(Cl)c32)cc1 [Compound 11, 6-Chloro-7-(3-(p-tolyl)prop-2-yn-1-yl)-7H-purin-2-amine]
[1]; [5]
  Hsp90α % Inhibition @10 μM: fluorescence background that interfered with the assay

## Cc1ccc(-c2[nH]nnc2Cn2cnc3c(Cl)nc(N)nc32)cc1 [Compound 12, 6-Chloro-9-((5-(p-tolyl)-1H-1,2,3-triazol-4-yl)methyl)-9H-purin-2-amine]
[1]; [5]
  Hsp90α % Inhibition @10 μM: fluorescence background that interfered with the assay

## Cc1ccc(-c2[nH]nnc2Cn2cnc3nc(N)nc(Cl)c32)cc1 [Compound 13, 6-Chloro-7-((5-(p-tolyl)-1H-1,2,3-triazol-4-yl)methyl)-7H-purin-2-amine]
[1]; [5]
  Hsp90α % Inhibition @10 μM: fluorescence background that interfered with the assay

## Cc1ccc(Cn2cnc3c(Cl)nc(N)nc32)cc1 [Compound 14, 6-Chloro-9-(4-methylbenzyl)-9H-purin-2-amine]
[1]; FITC-GM probe
  IC50: 1000 nM
[1]; [5]
  inhibition at 10 µM: 95.4%
MCF-7 cells; 10 μM
  inhibition at 10 µM: 55.1%
MCF-7 cells
  GI50: 16200 ± 710 nM
SK-BR-3 cells; [6]
  inhibition at 10 µM: 60.9%
SK-BR-3 cells; Homo sapiens, SK-BR-3, 72 h
  GI50: 15200 ± 2080 nM
HCT116 cells; [7]
  inhibition at 10 µM: 46.5%
[2]; ITC, 25 °C
  ∆H: -17.8 ± 0.2 kcal/mol
  ∆S: −30.5 cal/mol/deg
[2]; [8]
  N (binding stoichiometry): 0.89
[2]; [9]
  Kd: 410 nM
Hsp90α
  activity at 50 µM: 83.6%
[3]; 10 μM
  EGFR expression level: remarkably decreased
[3]; 20 μM
  Akt expression level: remarkably decreased
[3]; 0.5-20 μM, dose-dependent
  Hsp70 expression level: upregulated

## C=CCNC1=C2C[C@@H](C)C[C@H](OC)[C@H](O)[C@@H](C)/C=C(\C)[C@H](OC(N)=O)[C@@H](OC)/C=C\C=C(/C)C(=O)NC(=CC1=O)C2=O [Compound 17-AAG, Allyl-aminogeldanamycin, reference compound]
[1]
  inhibition at 10 µM: 100%
MCF-7 cells; 10 μM
  inhibition at 10 µM: 79.7%
MCF-7 cells
  GI50: 498 ± 60 nM
SK-BR-3 cells; [6]
  inhibition at 10 µM: 74.4%
SK-BR-3 cells; Homo sapiens, SK-BR-3, 72 h
  GI50: 140 ± 12 nM
HCT116 cells; [7]
  inhibition at 10 µM: 88.9%
HCT116 cells; Homo sapiens, HCT-116, 72 h
  GI50: 205 ± 9 nM
[2]
  Kd: 2900 nM
  N (binding stoichiometry): 0.98
  ∆H: -8.6 ± 0.4 kcal/mol
  ∆S: −3.66 cal/mol/deg

## COc1c(C)cnc(Cn2cc(C#CCC(C)(C)O)c3c(Cl)nc(N)nc32)c1C [EC144]
[4]
  efficacy relative to BIIB021: approximately 20 fold
